In EP4230621A1, “SUBSTITUTED N-BENZOIC ACID URACILS, THEIR SALTS AND USE OF SAID COMPOUNDS AS HERBICIDAL AGENTS” (Bayer AG, priority 2022, dated 2023):

Assays:
Format in all cases: in vivo
Abutilon theophrasti = assay: Post-emergence herbicidal action against ABUTH (greenhouse pot test); conditions: visual rating after ca. 3 weeks vs untreated controls (100% = plants dead, 0% = like controls)
Source text: (§1) Die folgenden Abkürzungen werden für die in den folgenden Tabellen aufgeführten Kultur- und Schadpflanzen verwendet: ABUTH: Abutilon theophrasti ALOMY: Alopecurus myosuroides AMARE: Amaranthus retroflexus BRSNS: Brassica napus DIGSA: Digitaria sanguinalis ECHCG: Echinochloa crus-galli GLXMA: Glycine max KCHSC: Kochia scoparia LOLRI: Lolium rigidum MATIN: Matricaria inodora ORYZA: Oryza sativa PHPBU: Pharbitis purpurea POLCO: Polygonum convolvulus SETVI: Setaria viridis VERPE: Veronica persica VIOTR: Viola tricolor TRZAS: Triticum aestivum ZEAMX: Zea mays
(§2) Samen von mono- bzw. dikotylen Unkrautpflanzen wurden in Kunststoff- oder Holzfasertöpfen in sandigem Lehmboden ausgelegt, mit Erde abgedeckt und im Gewächshaus unter kontrollierten Wachstumsbedingungen angezogen. 2 bis 3 Wochen nach der Aussaat wurden die Versuchspflanzen im Einblattstadium behandelt. Die in Form von benetzbaren Pulvern (WP) oder als Emulsionskonzentrate (EC) formulierten erfindungsgemäßen Verbindungen wurden dann als wässrige Suspension bzw. Emulsion unter Zusatz von 0,5% Additiv mit einer Wasseraufwandmenge von umgerechnet 600 1/ha auf die grünen Pflanzenteile gesprüht. Nach ca. 3 Wochen Standzeit der Versuchspflanzen im Gewächshaus, unter optimalen Wachstumsbedingungen, wurde die Wirkung der Präparate visuell im Vergleich zu unbehandelten Kontrollen bonitiert. Beispielsweise bedeutet 100% Wirkung = Pflanzen sind abgestorben, 0% Wirkung = wie Kontrollpflanzen.
(§3) In den nachstehenden Tabellen A1 bis A11 sind die Wirkungen ausgewählter Verbindungen der allgemeinen Formel (I) gemäß der Tabelle 1 auf verschiedene Schadpflanzen und einer Aufwandmenge entsprechend 80 g/ha und niedriger, die gemäß zuvor genannter Versuchsvorschrift erhalten wurden, dargestellt. Tabelle A1a: Nachauflaufwirkung bei 5 g/ha gegen ABUTH in %

Veronica persica = assay: Post-emergence herbicidal action against VERPE (greenhouse pot test)
Source text: as §1, §2, §3

Amaranthus retroflexus = assay: Post-emergence herbicidal action against AMARE (greenhouse pot test); conditions: visual rating after ca. 3 weeks vs untreated controls (100% = plants dead, 0% = like controls)
Source text: as §1, §2, §3

Matricaria inodora = assay: Post-emergence herbicidal action against MATIN (greenhouse pot test); conditions: for Nachauflaufwirkung gegen MATIN: visual rating after ca. 3 weeks vs untreated controls (100% = plants dead, 0% = like controls); for Nachauflaufwirkung gegen MATIN in %: 80 g/ha
Source text: as §1, §2, §3

Pharbitis purpurea = assay: Post-emergence herbicidal action against PHBPU (greenhouse pot test)
Source text: as §1, §2, §3

Setaria viridis = assay: Post-emergence herbicidal action against SETVI (greenhouse pot test)
Source text: as §1, §2, §3

Digitaria sanguinalis = assay: Post-emergence herbicidal action against DIGSA (greenhouse pot test); conditions: visual rating after ca. 3 weeks vs untreated controls (100% = plants dead, 0% = like controls)
Source text: as §1, §2, §3

Viola tricolor = assay: Post-emergence herbicidal action against VIOTR (greenhouse pot test)
Source text: as §1, §2, §3

Triticum aestivum = assay: Post-emergence action on crop plants, TRZAS (greenhouse pot test); conditions: crop plant
Source text: as §1
as §2, with “Kulturpflanzen” for “Unkrautpflanzen”
as §3, with “B1” for “A1”, “B3” for “A11”, “Kulturpflanzen” for “Schadpflanzen”, “20” for “80”, “B1a:” for “A1a:”, “ZEAMX” for “ABUTH”

Oryza sativa = assay: Post-emergence action on crop plants, ORYZA (greenhouse pot test); conditions: 5 g/ha
Source text: as §1
as §2, with “Kulturpflanzen” for “Unkrautpflanzen”
as §3, with “B1” for “A1”, “B3” for “A11”, “Kulturpflanzen” for “Schadpflanzen”, “20” for “80”, “B1a:” for “A1a:”, “ZEAMX” for “ABUTH”

Alopecurus myosuroides = assay: Post-emergence herbicidal action against ALOMY (greenhouse pot test); conditions: visual rating after ca. 3 weeks vs untreated controls (100% = plants dead, 0% = like controls)
Source text: as §1, §2, §3

Lolium rigidum = assay: Post-emergence herbicidal action against LOLRI (greenhouse pot test); conditions: visual rating after ca. 3 weeks vs untreated controls (100% = plants dead, 0% = like controls)
Source text: as §1, §2, §3

Polygonum convolvulus = assay: Post-emergence herbicidal action against POLCO (greenhouse pot test)
Source text: as §1, §2, §3

Zea mays = assay: Post-emergence action on crop plants, ZEAMX (greenhouse pot test); conditions: 5 g/ha, crop plant
Source text: as §1
as §2, with “Kulturpflanzen” for “Unkrautpflanzen”
as §3, with “B1” for “A1”, “B3” for “A11”, “Kulturpflanzen” for “Schadpflanzen”, “20” for “80”, “B1a:” for “A1a:”, “ZEAMX” for “ABUTH”

SMILES | Nachauflaufwirkung gegen ABUTH (Abutilon theophrasti; 5 g/ha) | Nachauflaufwirkung gegen ABUTH (Abutilon theophrasti; 20 g/ha) | Nachauflaufwirkung gegen ABUTH (Abutilon theophrasti; 80 g/ha) | Nachauflaufwirkung gegen VERPE in % (Veronica persica; 5 g/ha) | Nachauflaufwirkung gegen VERPE in % (Veronica persica; 20 g/ha) | Nachauflaufwirkung gegen VERPE in % (Veronica persica; 80 g/ha) | Nachauflaufwirkung gegen AMARE (Amaranthus retroflexus; 5 g/ha) | Nachauflaufwirkung gegen AMARE (Amaranthus retroflexus; 20 g/ha) | Nachauflaufwirkung gegen AMARE (Amaranthus retroflexus; 80 g/ha) | Nachauflaufwirkung gegen MATIN (Matricaria inodora; 5 g/ha) | Nachauflaufwirkung gegen MATIN (Matricaria inodora; 20 g/ha) | Nachauflaufwirkung gegen MATIN in % (Matricaria inodora) | Nachauflaufwirkung gegen PHBPU in % (Pharbitis purpurea; 5 g/ha) | Nachauflaufwirkung gegen PHBPU in % (Pharbitis purpurea; 20 g/ha) | Nachauflaufwirkung gegen PHBPU in % (Pharbitis purpurea; 80 g/ha) | Nachauflaufwirkung gegen SETVI in % (Setaria viridis; 5 g/ha) | Nachauflaufwirkung gegen SETVI in % (Setaria viridis; 20 g/ha) | Nachauflaufwirkung gegen SETVI in % (Setaria viridis; 80 g/ha) | Nachauflaufwirkung gegen DIGSA (Digitaria sanguinalis; 5 g/ha) | Nachauflaufwirkung gegen DIGSA (Digitaria sanguinalis; 20 g/ha) | other results
Cn1c(C(F)(F)F)cc(=O)n(-c2cc(C(=O)OC(C)(C)C(=O)OCc3ccccn3)c(Cl)cc2F)c1=O [I.1-286] | 100% | 100% | 100% | 100% | 100% | 100% | 100% | 100% | 100% | 100% | 100% | 100% | 100% | 100% | 100% | 100% | 100% | 100% | 100% | 100% | Nachauflaufwirkung gegen DIGSA (Digitaria sanguinalis; 80 g/ha): 100%; Nachauflaufwirkung gegen VIOTR in % (Viola tricolor; 5 g/ha): 100%; Nachauflaufwirkung gegen VIOTR in % (Viola tricolor; 20 g/ha): 100%; Nachauflaufwirkung gegen VIOTR in % (Viola tricolor; 80 g/ha): 100%; Nachauflaufwirkung gegen TRZAS in % (Triticum aestivum; 5 g/ha): 10%; Nachauflaufwirkung gegen TRZAS in % (Triticum aestivum; 20 g/ha): 20%; Nachauflaufwirkung gegen ORYZA in % (Oryza sativa): 0%; Nachauflaufwirkung gegen ALOMY (Alopecurus myosuroides; 20 g/ha): 100%; Nachauflaufwirkung gegen ALOMY (Alopecurus myosuroides; 80 g/ha): 100%; Nachauflaufwirkung gegen LOLRI (Lolium rigidum; 20 g/ha): 90%; Nachauflaufwirkung gegen LOLRI (Lolium rigidum; 80 g/ha): 100%; Nachauflaufwirkung gegen POLCO in % (Polygonum convolvulus; 5 g/ha): 100%; Nachauflaufwirkung gegen POLCO in % (Polygonum convolvulus; 20 g/ha): 100%; Nachauflaufwirkung gegen POLCO in % (Polygonum convolvulus; 80 g/ha): 100%; Nachauflaufwirkung gegen ZEAMX in % (Zea mays): 20%
COCCOC(=O)C(C)(C)OC(=O)c1cc(-n2c(=O)cc(C(F)(F)F)n(C)c2=O)c(F)cc1Cl [I.1-1] | 100% | 100% | 100% | 100% | 100% | 100% | 100% | 100% | 100% | 100% | 100% | 100% | 80% | 100% | 100% | 100% | 100% | 100% | 100% | 100% | Nachauflaufwirkung gegen DIGSA (Digitaria sanguinalis; 80 g/ha): 100%; Nachauflaufwirkung gegen VIOTR in % (Viola tricolor; 5 g/ha): 100%; Nachauflaufwirkung gegen VIOTR in % (Viola tricolor; 20 g/ha): 100%; Nachauflaufwirkung gegen VIOTR in % (Viola tricolor; 80 g/ha): 100%; Nachauflaufwirkung gegen TRZAS in % (Triticum aestivum; 5 g/ha): 10%; Nachauflaufwirkung gegen ORYZA in % (Oryza sativa): 20%; Nachauflaufwirkung gegen ALOMY (Alopecurus myosuroides; 20 g/ha): 100%; Nachauflaufwirkung gegen ALOMY (Alopecurus myosuroides; 80 g/ha): 100%; Nachauflaufwirkung gegen LOLRI (Lolium rigidum; 20 g/ha): 100%; Nachauflaufwirkung gegen LOLRI (Lolium rigidum; 80 g/ha): 100%; Nachauflaufwirkung gegen POLCO in % (Polygonum convolvulus; 5 g/ha): 100%; Nachauflaufwirkung gegen POLCO in % (Polygonum convolvulus; 20 g/ha): 100%; Nachauflaufwirkung gegen POLCO in % (Polygonum convolvulus; 80 g/ha): 100%; Nachauflaufwirkung gegen ZEAMX in % (Zea mays): 10%
